Laboratory results published in the supplement of paper PMC10307832.

Columns and labels:
Assay in all cases: relative viability (nuclei count vs DMSO), 5 days (fraction); higher = more cells survive
[1] = system: NCI-H1623
Method in brief: (§1)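 The day after seeding in 1536-well plates, lung cancer cell lines were treated by pin tool with a single drug, or with a fixed anchor-drug dose together with five library-drug doses (not always all listed) in √10 steps. After 5 days, a combined fix-and-stain solution (final 0.05% Triton X-100, 1% formaldehyde, 1 ug/ml Hoechst) was added. Nuclei counted on 4× images gave relative viability as treated counts over vehicle counts, reported as the median of duplicate plates.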

[2] = system: SK-MES-1
Method in brief: as §1

[3] = system: ChaGo-K-1
Method in brief: as §1

[4] = system: NCI-H1651
Method in brief: as §1

[5] = system: NCI-H522
Method in brief: as §1

[6] = system: NCI-H1648
Method in brief: as §1

[7] = system: A549
Method in brief: as §1

[8] = system: NCI-H1299
Method in brief: as §1

[9] = system: Calu-6
Method in brief: as §1

[10] = system: IA-LM
Method in brief: as §1

[11] = system: NCI-H1703
Method in brief: as §1

[12] = system: EBC-1
Method in brief: as §1

C=C1C(=O)O[C@@H](CCCCCCCC)[C@@H]1C(=O)O [C-75] + COc1cccc2cc(-c3nc([C@H]4CC[C@H](C(=O)O)CC4)n4ncnc(N)c34)[nH]c12 [OSI-027] (partner 0.5 µM) was tested. Which relative viability ([1]; first compound 0.08 µM) did it give?
Its relative viability is 0.463.

What about the relative viability ([1]; first compound 0.253 µM) of the same molecule?
Its relative viability is 0.503.

And the relative viability ([1]; first compound 0.8 µM)?
Its relative viability is 0.416.

And the relative viability ([1]; first compound 2.53 µM)?
Its relative viability is 0.38.

What about the relative viability ([1]; first compound 8 µM) of the same molecule?
The relative viability was 0.457.

And the relative viability ([2]; first compound 0.08 µM)?
Its relative viability is 0.738.

What about the relative viability ([2]; first compound 0.253 µM) of the same molecule?
The relative viability was 0.666.

And the relative viability ([2]; first compound 0.8 µM)?
Its relative viability is 0.568.

And the relative viability ([2]; first compound 2.53 µM)?
Its relative viability is 0.469.

What about the relative viability ([2]; first compound 8 µM) of the same molecule?
The relative viability was 0.549.

What about the relative viability ([3]; first compound 0.08 µM) of the same molecule?
Its relative viability is 0.605.

And the relative viability ([3]; first compound 0.253 µM)?
Its relative viability is 0.545.

What about the relative viability ([3]; first compound 0.8 µM) of the same molecule?
The relative viability was 0.532.

What about the relative viability ([3]; first compound 2.53 µM) of the same molecule?
The relative viability was 0.422.

What about the relative viability ([3]; first compound 8 µM) of the same molecule?
Its relative viability is 0.564.

What about the relative viability ([4]; first compound 0.08 µM) of the same molecule?
The relative viability was 0.712.

What about the relative viability ([4]; first compound 0.253 µM) of the same molecule?
Its relative viability is 0.838.

What about the relative viability ([4]; first compound 0.8 µM) of the same molecule?
The relative viability was 0.768.

And the relative viability ([4]; first compound 2.53 µM)?
Its relative viability is 0.635.

And the relative viability ([4]; first compound 8 µM)?
The relative viability was 0.815.

What about the relative viability ([5]; first compound 0.08 µM) of the same molecule?
The relative viability was 0.744.

And the relative viability ([5]; first compound 0.253 µM)?
The relative viability was 0.819.

What about the relative viability ([5]; first compound 0.8 µM) of the same molecule?
Its relative viability is 0.753.

What about the relative viability ([5]; first compound 8 µM) of the same molecule?
The relative viability was 0.641.

What about the relative viability ([6]; first compound 0.08 µM) of the same molecule?
The relative viability was 0.238.

What about the relative viability ([6]; first compound 0.253 µM) of the same molecule?
The relative viability was 0.301.

What about the relative viability ([6]; first compound 0.8 µM) of the same molecule?
The relative viability was 0.276.

What about the relative viability ([6]; first compound 8 µM) of the same molecule?
Its relative viability is 0.267.

How did the relative viability ([1]; first compound 0.01 µM) turn out when NC(=O)Nc1cc(-c2cccc(F)c2)sc1C(=O)N[C@H]1CCCNC1 [AZD7762] + N=C(N)NC(=N)NCCc1ccccc1 [Phenformin] (partner 250 µM) was run?
Its relative viability is 0.557.

And the relative viability ([1]; first compound 0.03162 µM)?
Its relative viability is 0.606.

And the relative viability ([1]; first compound 0.1 µM)?
Its relative viability is 0.594.

And the relative viability ([1]; first compound 0.3162 µM)?
Its relative viability is 0.632.

And the relative viability ([1]; first compound 1 µM)?
The relative viability was 0.497.

What about the relative viability ([7]; first compound 0.01 µM) of the same molecule?
The relative viability was 0.167.

And the relative viability ([7]; first compound 0.03162 µM)?
Its relative viability is 0.183.

And the relative viability ([7]; first compound 0.1 µM)?
Its relative viability is 0.187.

And the relative viability ([7]; first compound 0.3162 µM)?
Its relative viability is 0.188.

What about the relative viability ([7]; first compound 1 µM) of the same molecule?
Its relative viability is 0.184.

And the relative viability ([2]; first compound 0.01 µM)?
Its relative viability is 0.699.

And the relative viability ([2]; first compound 0.03162 µM)?
Its relative viability is 0.663.

What about the relative viability ([2]; first compound 0.1 µM) of the same molecule?
Its relative viability is 0.709.

And the relative viability ([2]; first compound 0.3162 µM)?
The relative viability was 0.501.

And the relative viability ([2]; first compound 1 µM)?
Its relative viability is 0.158.

And the relative viability ([3]; first compound 0.01 µM)?
Its relative viability is 0.517.

What about the relative viability ([3]; first compound 0.03162 µM) of the same molecule?
The relative viability was 0.513.

And the relative viability ([3]; first compound 0.1 µM)?
Its relative viability is 0.479.

And the relative viability ([3]; first compound 0.3162 µM)?
The relative viability was 0.468.

And the relative viability ([3]; first compound 1 µM)?
The relative viability was 0.496.

What about the relative viability ([4]; first compound 0.01 µM) of the same molecule?
Its relative viability is 0.36.

And the relative viability ([4]; first compound 0.03162 µM)?
Its relative viability is 0.434.

What about the relative viability ([4]; first compound 0.1 µM) of the same molecule?
Its relative viability is 0.319.

And the relative viability ([4]; first compound 0.3162 µM)?
Its relative viability is 0.268.

What about the relative viability ([4]; first compound 1 µM) of the same molecule?
Its relative viability is 0.17.

What about the relative viability ([5]; first compound 0.01 µM) of the same molecule?
Its relative viability is 0.668.

What about the relative viability ([5]; first compound 0.03162 µM) of the same molecule?
The relative viability was 0.711.

What about the relative viability ([5]; first compound 0.1 µM) of the same molecule?
The relative viability was 0.635.

And the relative viability ([5]; first compound 0.3162 µM)?
The relative viability was 0.752.

And the relative viability ([5]; first compound 1 µM)?
Its relative viability is 0.597.

How did the relative viability ([1]; first compound 0.005 µM) turn out when CC1(C)CCC(c2ccc(Cl)cc2)=C(CN2CCN(c3ccc(C(=O)NS(=O)(=O)c4ccc(N[C@H](CCN5CCOCC5)CSc5ccccc5)c(S(=O)(=O)C(F)(F)F)c4)cc3)CC2)C1 [Navitoclax] + COc1cc2c(Oc3ccc(NC(=O)C4(C(=O)Nc5ccc(F)cc5)CC4)cc3F)ccnc2cc1OCCCN1CCOCC1 [Foretinib] (partner 0.25 µM) was run?
Its relative viability is 0.863.

And the relative viability ([1]; first compound 0.01581 µM)?
The relative viability was 0.981.

What about the relative viability ([1]; first compound 0.05 µM) of the same molecule?
The relative viability was 0.781.

What about the relative viability ([1]; first compound 0.1581 µM) of the same molecule?
Its relative viability is 0.842.

What about the relative viability ([1]; first compound 0.5 µM) of the same molecule?
Its relative viability is 0.811.

And the relative viability ([7]; first compound 0.005 µM)?
Its relative viability is 0.887.

And the relative viability ([7]; first compound 0.01581 µM)?
Its relative viability is 1.03.

What about the relative viability ([7]; first compound 0.05 µM) of the same molecule?
The relative viability was 0.994.

And the relative viability ([7]; first compound 0.1581 µM)?
The relative viability was 1.02.

And the relative viability ([7]; first compound 0.5 µM)?
The relative viability was 0.916.

What about the relative viability ([8]; first compound 0.005 µM) of the same molecule?
Its relative viability is 1.1.

What about the relative viability ([8]; first compound 0.01581 µM) of the same molecule?
Its relative viability is 1.1.

What about the relative viability ([8]; first compound 0.05 µM) of the same molecule?
The relative viability was 1.12.

And the relative viability ([8]; first compound 0.1581 µM)?
The relative viability was 1.11.

What about the relative viability ([8]; first compound 0.5 µM) of the same molecule?
Its relative viability is 1.11.

And the relative viability ([2]; first compound 0.005 µM)?
Its relative viability is 0.817.

What about the relative viability ([2]; first compound 0.01581 µM) of the same molecule?
The relative viability was 1.09.

And the relative viability ([2]; first compound 0.05 µM)?
Its relative viability is 0.916.

What about the relative viability ([2]; first compound 0.1581 µM) of the same molecule?
Its relative viability is 0.895.

What about the relative viability ([2]; first compound 0.5 µM) of the same molecule?
The relative viability was 1.04.

What about the relative viability ([9]; first compound 0.005 µM) of the same molecule?
Its relative viability is 0.852.

What about the relative viability ([9]; first compound 0.01581 µM) of the same molecule?
The relative viability was 0.921.

What about the relative viability ([9]; first compound 0.05 µM) of the same molecule?
Its relative viability is 0.937.

What about the relative viability ([9]; first compound 0.1581 µM) of the same molecule?
The relative viability was 0.916.

And the relative viability ([9]; first compound 0.5 µM)?
Its relative viability is 0.894.

And the relative viability ([3]; first compound 0.005 µM)?
Its relative viability is 1.04.

What about the relative viability ([3]; first compound 0.01581 µM) of the same molecule?
Its relative viability is 0.94.

And the relative viability ([3]; first compound 0.05 µM)?
Its relative viability is 0.537.

And the relative viability ([3]; first compound 0.1581 µM)?
Its relative viability is 0.9.

What about the relative viability ([3]; first compound 0.5 µM) of the same molecule?
The relative viability was 0.932.

What about the relative viability ([10]; first compound 0.005 µM) of the same molecule?
Its relative viability is 1.18.

What about the relative viability ([10]; first compound 0.01581 µM) of the same molecule?
The relative viability was 1.2.

What about the relative viability ([10]; first compound 0.05 µM) of the same molecule?
The relative viability was 1.36.

What about the relative viability ([10]; first compound 0.1581 µM) of the same molecule?
Its relative viability is 1.27.

And the relative viability ([10]; first compound 0.5 µM)?
Its relative viability is 1.18.

And the relative viability ([11]; first compound 0.005 µM)?
Its relative viability is 0.472.

What about the relative viability ([11]; first compound 0.01581 µM) of the same molecule?
The relative viability was 0.369.

And the relative viability ([11]; first compound 0.05 µM)?
The relative viability was 0.416.

And the relative viability ([11]; first compound 0.1581 µM)?
Its relative viability is 0.337.

What about the relative viability ([11]; first compound 0.5 µM) of the same molecule?
The relative viability was 0.353.

What about the relative viability ([4]; first compound 0.005 µM) of the same molecule?
The relative viability was 0.681.

What about the relative viability ([4]; first compound 0.01581 µM) of the same molecule?
The relative viability was 0.979.

What about the relative viability ([4]; first compound 0.05 µM) of the same molecule?
The relative viability was 0.442.

What about the relative viability ([4]; first compound 0.1581 µM) of the same molecule?
Its relative viability is 0.809.

What about the relative viability ([4]; first compound 0.5 µM) of the same molecule?
The relative viability was 0.847.

And the relative viability ([12]; first compound 0.005 µM)?
Its relative viability is 0.0939.

And the relative viability ([12]; first compound 0.01581 µM)?
Its relative viability is 0.118.

What about the relative viability ([12]; first compound 0.05 µM) of the same molecule?
Its relative viability is 0.113.

And the relative viability ([12]; first compound 0.1581 µM)?
Its relative viability is 0.103.

And the relative viability ([12]; first compound 0.5 µM)?
The relative viability was 0.0895.
